Measured values taken from patent publication US6525001B1, “Substituted pyrimidine and pyridine herbicides” (Mid-American Commercialization Corporation, priority 1997, dated 2003).

Experiments:
Experiment in all cases: Test D
Format in all cases: in vivo
[1] = tested on: downy brome (Bromus tectorum); conditions: PREEMERGENCE
[2] = tested on: windgrass (Apera spica-venti); design: key: 0 is no effect; 100 is complete control; conditions: PREEMERGENCE
[3] = tested on: jointed goatgrass (Aegilops cylindrica); conditions: PREEMERGENCE
[4] = tested on: wild buckwheat (Polygonum convolvulus); conditions: PREEMERGENCE
[5] = tested on: galium 2 (Galium aparine); design: key: 0 is no effect; 100 is complete control; conditions: PREEMERGENCE
[6] = tested on: blackgrass (Alopecurus myosuroides); conditions: PREEMERGENCE
[7] = tested on: field violet (Viola arvensis); conditions: PREEMERGENCE
[8] = tested on: spring wheat (Triticum aestivum); design: key to Plant response rating, Spring Wheat: 0 is no effect; conditions: PREEMERGENCE
kochia (Kochia scoparia) = tested on: kochia (Kochia scoparia); design: key: 0 is no effect; 100 is complete control; conditions: PREEMERGENCE
[9] = tested on: Italian ryegrass (Lolium multiflorum); conditions: PREEMERGENCE
[10] = tested on: scentless chamomile (Matricaria inodora); conditions: POSTEMERGENCE
Method: (§1) Compounds evaluated in this test were formulated in a non-phytotoxic solvent mixture which included a surfactant and applied to plants that were in the 1- to 4-leaf stage (postemergence application). A mixture of sandy loam soil and greenhouse potting mix in a 60:40 ratio was used for the postemergence test.
(§2) Plantings of these crops and weed species were adjusted to produce plants of appropriate size for the postemergence test. All plant species were grown using normal greenhouse practices. Crop and weed species include alfalfa (Medicago sativa), annual bluegrass (Poa annua), blackgrass (Alopecurus myosuroides), black nightshade (Solanum nigra), chickweed (Stellaria media), common poppy (Papaver rhoeas), deadnettle (Lamium amplexicaule), downy brome (Bromus tectorum), field violet (Viola arvensis), galium 2 (Galium aparine), green foxtail (Setaria viridis), Italian ryegrass (Lolium multiflorum), jointed goatgrass (Aegilops cylindrica), kochia (Kochia scoparia), lambsquarters (Chenopodium album), lentil (Lens culinaris), littleseed canarygrass (Phalaris minor), pea (Pisum sativum), potato (Solanum tuberosum), rape (Brassica napus), redroot pigweed (Amaranthus retroflexus), Russian thistle (Salsola kali), scentless chamomile (Matricaria inodora), sorghum (Sorghum vulgare), spring barley (Hordeum vulgare), sugar beet (Beta vulgaris), sunflower (Helianthus annuus), ivyleaf speedwell (Veronica hederaefolia), spring wheat (Triticum aestivum), winter wheat (Triticum aestivum), wild buckwheat (Polygonum convolvulus), wild mustard (Sinapis arvensis), wild oat (Avena fatua), windgrass (Apera spica-venti) and winter barley (Hordeum vulgare).
(§3) Treated plants and untreated controls were maintained in a greenhouse for approximately 21 to 28 days, after which all treated plants were compared to untreated controls and visually evaluated. Plant response ratings, summarized in Table D, are based upon a 0 to 100 scale where 0 is no effect and 100 is complete control. A dash response (−) means no test result.

[11] = tested on: spring barley (Hordeum vulgare); conditions: POSTEMERGENCE
Method: as §1, §2, §3

[12] = tested on: sunflower (Helianthus annuus); conditions: POSTEMERGENCE
Method: as §1, §2, §3

wild oat (Avena fatua) = conditions: POSTEMERGENCE
Method: as §1, §2, §3

[13] = tested on: winter wheat (Triticum aestivum); conditions: POSTEMERGENCE
Method: as §1, §2, §3

[14] = tested on: green foxtail (Setaria viridis); conditions: POSTEMERGENCE
Method: as §1, §2, §3

[15] = tested on: jointed goatgrass (Aegilops cylindrica); conditions: POSTEMERGENCE
Method: as §1, §2, §3

[16] = tested on: annual bluegrass (Poa annua); conditions: POSTEMERGENCE
Method: as §1, §2, §3

[17] = tested on: littleseed canarygrass (Phalaris minor); conditions: POSTEMERGENCE
Method: as §1, §2, §3

[18] = tested on: lambsquarters (Chenopodium album); conditions: PREEMERGENCE
[19] = tested on: redroot pigweed (Amaranthus retroflexus); conditions: PREEMERGENCE
[20] = tested on: lambsquarters (Chenopodium album); design: key: 0 is no effect; conditions: POSTEMERGENCE
Method: as §1, §2, §3

## Cc1cnc(-c2ccc(C(F)(F)F)cc2)nc1Cc1cccc(C(F)(F)F)c1 [Example 1, 5-methyl-2-[4-(trifluoromethyl)phenyl]-4-[[3-(trifluoromethyl)phenyl]methyl]pyrimidine]
[1]; Rate 31 g/ha
  Plant response rating, Downy brome: 30
[1]; Rate 62 g/ha
  Plant response rating, Downy brome: 50
[1]; Rate 125 g/ha
  Plant response rating, Downy brome: 60
[2]; Rate 31 g/ha
  Plant response rating, Windgrass: 60
[2]; Rate 62 g/ha
  Plant response rating, Windgrass: 100
[2]; Rate 125 g/ha
  Plant response rating, Windgrass: 100
[2]; Rate 250 g/ha
  Plant response rating, Windgrass: 100
[3]; Rate 31 g/ha
  Plant response rating, Jointed goatgra: 10
[3]; Rate 62 g/ha
  Plant response rating, Jointed goatgra: 20
[3]; Rate 125 g/ha
  Plant response rating, Jointed goatgra: 70
[3]; Rate 250 g/ha
  Plant response rating, Jointed goatgra: 50
[4]; Rate 31 g/ha
  Plant response rating, Wild buckwheat: 40
[4]; Rate 62 g/ha
  Plant response rating, Wild buckwheat: 80
[4]; Rate 125 g/ha
  Plant response rating, Wild buckwheat: 85
[4]; Rate 250 g/ha
  Plant response rating, Wild buckwheat: 85
[5]; Rate 31 g/ha
  Plant response rating, Galium: 20
[5]; Rate 62 g/ha
  Plant response rating, Galium: 100
[5]; Rate 125 g/ha
  Plant response rating, Galium: 100
[5]; Rate 250 g/ha
  Plant response rating, Galium: 100
[6]; Rate 31 g/ha
  Plant response rating, Blackgrass: 30
[6]; Rate 62 g/ha
  Plant response rating, Blackgrass: 50
[6]; Rate 125 g/ha
  Plant response rating, Blackgrass: 60
[6]; Rate 250 g/ha
  Plant response rating, Blackgrass: 70
[7]; Rate 31 g/ha
  Plant response rating, Field violet: 20
[7]; Rate 62 g/ha
  Plant response rating, Field violet: 70
[7]; Rate 125 g/ha
  Plant response rating, Field violet: 85
[7]; Rate 250 g/ha
  Plant response rating, Field violet: 85
[8]; Rate 31 g/ha
  Plant response rating, Spring Wheat: 0
  Plant response rating, Wheat (spring): 10
[8]; Rate 62 g/ha
  Plant response rating, Spring Wheat: 0
  Plant response rating, Wheat (spring): 10
[8]; Rate 125 g/ha
  Plant response rating, Spring Wheat: 0
  Plant response rating, Wheat (spring): 50
[8]; Rate 250 g/ha
  Plant response rating, Wheat (spring): 30
Kochia (Kochia scoparia); Rate 31 g/ha
  Plant response rating, Kochia: 40
Kochia (Kochia scoparia); Rate 62 g/ha
  Plant response rating, Kochia: 100
Kochia (Kochia scoparia); Rate 125 g/ha
  Plant response rating, Kochia: 100
Kochia (Kochia scoparia); Rate 250 g/ha
  Plant response rating, Kochia: 85
[9]; Rate 31 g/ha
  Plant response rating, I. Ryegrass: 10
[9]; Rate 62 g/ha
  Plant response rating, I. Ryegrass: 40
[10]; Rate 16 g/ha
  Plant response rating, Scentless chamo: 30
[10]; Rate 31 g/ha
  Plant response rating, Scentless chamo: 60
[10]; Rate 62 g/ha
  Plant response rating, Scentless chamo: 60
[10]; Rate 125 g/ha
  Plant response rating, Scentless chamo: 60
[11]; Rate 16 g/ha
  Plant response rating, Spring Barley: 5
[11]; Rate 31 g/ha
  Plant response rating, Spring Barley: 10
[11]; Rate 62 g/ha
  Plant response rating, Spring Barley: 10
[11]; Rate 125 g/ha
  Plant response rating, Spring Barley: 10
[12]; Rate 16 g/ha
  Plant response rating, Sunflower: 5
[12]; Rate 31 g/ha
  Plant response rating, Sunflower: 10
[12]; Rate 62 g/ha
  Plant response rating, Sunflower: 20
[12]; Rate 125 g/ha
  Plant response rating, Sunflower: 20
Wild oat (Avena fatua); Rate 16 g/ha
  Plant response rating, Wild oat: 5
Wild oat (Avena fatua); Rate 31 g/ha
  Plant response rating, Wild oat: 20
Wild oat (Avena fatua); Rate 62 g/ha
  Plant response rating, Wild oat: 20
Wild oat (Avena fatua); Rate 125 g/ha
  Plant response rating, Wild oat: 30
[13]; Rate 16 g/ha
  Plant response rating, Wheat (winter): 5
[13]; Rate 31 g/ha
  Plant response rating, Wheat (winter): 10
[13]; Rate 62 g/ha
  Plant response rating, Wheat (winter): 10
[13]; Rate 125 g/ha
  Plant response rating, Wheat (winter): 10
[14]; Rate 16 g/ha
  Plant response rating, Green foxtail: 5
[14]; Rate 31 g/ha
  Plant response rating, Green foxtail: 10
[14]; Rate 62 g/ha
  Plant response rating, Green foxtail: 20
[14]; Rate 125 g/ha
  Plant response rating, Green foxtail: 20
[15]; Rate 16 g/ha
  Plant response rating, Jointed goatgra: 5
[15]; Rate 31 g/ha
  Plant response rating, Jointed goatgra: 10
[15]; Rate 62 g/ha
  Plant response rating, Jointed goatgra: 10
[15]; Rate 125 g/ha
  Plant response rating, Jointed goatgra: 10
[16]; Rate 16 g/ha
  Plant response rating, Annual bluegras: 20
[16]; Rate 31 g/ha
  Plant response rating, Annual bluegras: 50
[16]; Rate 62 g/ha
  Plant response rating, Annual bluegras: 50
[17]; Rate 16 g/ha
  Plant response rating, LS canarygrass: 10
[17]; Rate 31 g/ha
  Plant response rating, LS canarygrass: 10
[17]; Rate 62 g/ha
  Plant response rating, LS canarygrass: 20
[17]; Rate 125 g/ha
  Plant response rating, LS canarygrass: 20
[18]; Rate 31 g/ha
  Plant response rating, Lambsquarters: 10
[18]; Rate 62 g/ha
  Plant response rating, Lambsquarters: 70
[18]; Rate 125 g/ha
  Plant response rating, Lambsquarters: 70
[18]; Rate 250 g/ha
  Plant response rating, Lambsquarters: 70
[19]; Rate 31 g/ha
  Plant response rating, Redroot pigweed: 75
[19]; Rate 62 g/ha
  Plant response rating, Redroot pigweed: 70
[19]; Rate 125 g/ha
  Plant response rating, Redroot pigweed: 75
[19]; Rate 250 g/ha
  Plant response rating, Redroot pigweed: 70
[20]; Rate 16 g/ha
  Plant response rating, Lambsquarters: 0
[20]; Rate 31 g/ha
  Plant response rating, Lambsquarters: 60
[20]; Rate 62 g/ha
  Plant response rating, Lambsquarters: 60
[20]; Rate 125 g/ha
  Plant response rating, Lambsquarters: 50
